From US10479786B2, “Protein kinase inhibitors” (Princeton Drug Discovery Inc, priority 2016, dated 2019)

How the values were obtained:
Experiment in all cases: Off-chip Mobility Shift Assay, kinase inhibition
Assay type in all cases: biochemical
[1] = molecular target: T1, EGFR(L858R) (Homo sapiens, UniProt P00533, L858R); details: at 10 nM; recombinant EGFR(L858R)
T1 construct: purchased Carna Biosciences, Inc

[2] = molecular target: T2, EGFR(T790M) (Homo sapiens, UniProt P00533, T790M); details: at 10 nM; recombinant EGFR(T790M)
T2 construct: purchased Carna Biosciences, Inc

[3] = molecular target: T3, RET(G691 S) (Homo sapiens, UniProt P07949, G691S); details: at 10 nM; recombinant RET(G691 S)
T3 construct: purchased Carna Biosciences, Inc

[4] = molecular target: T4, WNK3 (Homo sapiens, UniProt Q9BYP7); details: at 10 nM; recombinant WNK3
T4 construct: purchased Carna Biosciences, Inc

[5] = molecular target: T5, SRM (Homo sapiens, UniProt Q9H3Y6); details: at 10 nM; recombinant SRM
T5 construct: purchased Carna Biosciences, Inc

[6] = molecular target: T6, LYNb (Homo sapiens, UniProt P07948); details: at 1 nM; recombinant LYNb
T6 construct: purchased Carna Biosciences, Inc
T6 sequence (P07948 1-491 isoform P07948-2): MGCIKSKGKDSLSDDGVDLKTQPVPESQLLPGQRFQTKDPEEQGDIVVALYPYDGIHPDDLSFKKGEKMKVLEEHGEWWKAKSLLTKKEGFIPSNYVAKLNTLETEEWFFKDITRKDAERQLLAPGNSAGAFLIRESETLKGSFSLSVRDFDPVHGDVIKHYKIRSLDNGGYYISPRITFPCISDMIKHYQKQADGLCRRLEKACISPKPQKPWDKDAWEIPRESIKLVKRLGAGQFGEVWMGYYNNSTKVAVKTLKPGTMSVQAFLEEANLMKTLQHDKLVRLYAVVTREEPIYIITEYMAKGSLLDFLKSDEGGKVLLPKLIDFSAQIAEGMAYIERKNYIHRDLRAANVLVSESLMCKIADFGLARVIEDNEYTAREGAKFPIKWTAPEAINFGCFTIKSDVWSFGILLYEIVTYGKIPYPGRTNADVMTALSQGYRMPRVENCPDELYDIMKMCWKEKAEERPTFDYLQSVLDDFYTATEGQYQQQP

T2 sequence (P00533 25-1210 T790M): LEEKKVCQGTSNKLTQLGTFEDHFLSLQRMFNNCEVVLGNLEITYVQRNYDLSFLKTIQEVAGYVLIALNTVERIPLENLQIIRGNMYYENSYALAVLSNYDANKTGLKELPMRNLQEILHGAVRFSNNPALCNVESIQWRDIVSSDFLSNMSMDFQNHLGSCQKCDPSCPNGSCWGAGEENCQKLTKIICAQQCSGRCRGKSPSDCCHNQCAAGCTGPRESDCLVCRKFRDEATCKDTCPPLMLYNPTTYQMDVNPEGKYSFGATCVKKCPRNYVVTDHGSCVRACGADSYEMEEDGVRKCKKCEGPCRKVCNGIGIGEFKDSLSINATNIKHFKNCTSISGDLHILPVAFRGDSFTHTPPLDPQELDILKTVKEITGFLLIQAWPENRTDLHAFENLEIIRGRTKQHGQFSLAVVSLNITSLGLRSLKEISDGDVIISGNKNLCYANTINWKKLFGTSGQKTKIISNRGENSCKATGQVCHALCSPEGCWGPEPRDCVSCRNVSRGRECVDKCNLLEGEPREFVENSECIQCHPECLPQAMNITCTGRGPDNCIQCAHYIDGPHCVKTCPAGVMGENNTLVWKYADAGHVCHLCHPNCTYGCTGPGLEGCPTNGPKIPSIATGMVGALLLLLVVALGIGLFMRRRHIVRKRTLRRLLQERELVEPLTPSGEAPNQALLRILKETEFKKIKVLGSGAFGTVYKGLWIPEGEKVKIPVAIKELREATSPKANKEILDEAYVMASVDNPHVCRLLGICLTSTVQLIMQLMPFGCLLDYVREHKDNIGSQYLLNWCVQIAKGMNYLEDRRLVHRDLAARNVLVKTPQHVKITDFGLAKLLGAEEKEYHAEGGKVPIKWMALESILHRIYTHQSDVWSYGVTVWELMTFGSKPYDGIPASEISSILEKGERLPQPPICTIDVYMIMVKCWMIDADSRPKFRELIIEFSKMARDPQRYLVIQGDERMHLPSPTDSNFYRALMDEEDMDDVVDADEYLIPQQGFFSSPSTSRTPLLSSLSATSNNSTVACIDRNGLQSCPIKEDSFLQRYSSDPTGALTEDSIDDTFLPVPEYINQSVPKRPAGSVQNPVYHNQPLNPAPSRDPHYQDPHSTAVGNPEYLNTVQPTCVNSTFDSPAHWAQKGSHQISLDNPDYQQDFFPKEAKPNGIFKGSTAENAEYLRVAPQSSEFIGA
T3 sequence (P07949 29-1114 G691S): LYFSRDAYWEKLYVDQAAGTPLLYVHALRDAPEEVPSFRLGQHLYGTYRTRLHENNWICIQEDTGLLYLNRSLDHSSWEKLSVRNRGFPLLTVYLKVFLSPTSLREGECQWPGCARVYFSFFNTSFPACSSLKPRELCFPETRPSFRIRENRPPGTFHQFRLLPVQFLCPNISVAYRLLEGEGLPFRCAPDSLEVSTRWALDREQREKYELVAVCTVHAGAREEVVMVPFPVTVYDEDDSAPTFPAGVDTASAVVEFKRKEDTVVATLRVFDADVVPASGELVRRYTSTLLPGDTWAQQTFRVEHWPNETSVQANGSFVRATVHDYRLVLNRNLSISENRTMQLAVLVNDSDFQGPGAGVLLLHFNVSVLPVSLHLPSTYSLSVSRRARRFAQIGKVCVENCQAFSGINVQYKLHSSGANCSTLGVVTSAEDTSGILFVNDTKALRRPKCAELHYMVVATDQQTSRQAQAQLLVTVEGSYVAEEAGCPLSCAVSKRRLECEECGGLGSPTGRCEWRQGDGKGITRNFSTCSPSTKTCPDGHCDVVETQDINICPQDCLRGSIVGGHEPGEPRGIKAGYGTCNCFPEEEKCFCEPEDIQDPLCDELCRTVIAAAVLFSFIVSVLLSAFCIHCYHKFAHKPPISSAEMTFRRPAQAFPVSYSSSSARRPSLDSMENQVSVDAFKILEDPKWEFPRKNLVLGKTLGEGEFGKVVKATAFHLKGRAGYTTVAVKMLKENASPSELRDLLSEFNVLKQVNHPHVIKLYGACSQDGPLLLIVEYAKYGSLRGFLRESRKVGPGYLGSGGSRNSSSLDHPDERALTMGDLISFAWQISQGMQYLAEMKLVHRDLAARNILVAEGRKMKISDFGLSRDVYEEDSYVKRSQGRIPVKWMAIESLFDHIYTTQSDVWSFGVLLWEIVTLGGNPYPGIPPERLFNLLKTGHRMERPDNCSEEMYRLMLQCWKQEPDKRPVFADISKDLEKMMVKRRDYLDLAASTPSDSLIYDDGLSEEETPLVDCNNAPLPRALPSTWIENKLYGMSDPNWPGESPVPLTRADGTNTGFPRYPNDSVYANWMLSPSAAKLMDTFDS
T1 sequence (P00533 25-1210 L858R): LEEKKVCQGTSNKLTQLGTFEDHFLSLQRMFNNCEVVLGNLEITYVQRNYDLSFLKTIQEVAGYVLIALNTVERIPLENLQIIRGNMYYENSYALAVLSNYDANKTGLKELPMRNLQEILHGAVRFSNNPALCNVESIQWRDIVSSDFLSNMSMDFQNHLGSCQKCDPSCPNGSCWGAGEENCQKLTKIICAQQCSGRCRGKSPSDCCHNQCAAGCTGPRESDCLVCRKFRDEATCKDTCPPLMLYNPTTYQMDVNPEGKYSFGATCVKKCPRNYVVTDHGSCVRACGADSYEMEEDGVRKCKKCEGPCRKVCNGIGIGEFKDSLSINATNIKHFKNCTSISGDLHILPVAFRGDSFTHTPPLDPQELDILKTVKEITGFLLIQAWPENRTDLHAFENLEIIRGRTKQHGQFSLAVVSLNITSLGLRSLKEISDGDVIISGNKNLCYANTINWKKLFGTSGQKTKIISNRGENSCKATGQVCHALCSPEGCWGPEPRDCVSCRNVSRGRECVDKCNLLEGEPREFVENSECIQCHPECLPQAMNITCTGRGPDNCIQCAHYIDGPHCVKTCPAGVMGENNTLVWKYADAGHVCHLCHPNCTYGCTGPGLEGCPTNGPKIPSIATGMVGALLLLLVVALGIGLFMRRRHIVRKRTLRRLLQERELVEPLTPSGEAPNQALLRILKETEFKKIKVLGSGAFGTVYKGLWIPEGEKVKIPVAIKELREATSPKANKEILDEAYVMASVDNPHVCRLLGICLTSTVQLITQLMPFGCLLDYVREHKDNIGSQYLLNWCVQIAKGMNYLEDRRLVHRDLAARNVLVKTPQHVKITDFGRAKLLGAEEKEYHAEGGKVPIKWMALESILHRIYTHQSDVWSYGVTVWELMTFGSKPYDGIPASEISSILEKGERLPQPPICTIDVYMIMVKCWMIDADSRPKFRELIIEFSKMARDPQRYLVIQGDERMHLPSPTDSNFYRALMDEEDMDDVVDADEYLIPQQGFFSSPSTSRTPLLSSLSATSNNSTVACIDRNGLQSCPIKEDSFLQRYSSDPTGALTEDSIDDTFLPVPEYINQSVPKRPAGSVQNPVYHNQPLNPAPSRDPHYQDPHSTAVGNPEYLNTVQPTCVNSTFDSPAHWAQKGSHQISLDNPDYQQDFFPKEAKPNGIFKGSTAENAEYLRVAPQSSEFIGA
T5 sequence (Q9H3Y6 whole entry): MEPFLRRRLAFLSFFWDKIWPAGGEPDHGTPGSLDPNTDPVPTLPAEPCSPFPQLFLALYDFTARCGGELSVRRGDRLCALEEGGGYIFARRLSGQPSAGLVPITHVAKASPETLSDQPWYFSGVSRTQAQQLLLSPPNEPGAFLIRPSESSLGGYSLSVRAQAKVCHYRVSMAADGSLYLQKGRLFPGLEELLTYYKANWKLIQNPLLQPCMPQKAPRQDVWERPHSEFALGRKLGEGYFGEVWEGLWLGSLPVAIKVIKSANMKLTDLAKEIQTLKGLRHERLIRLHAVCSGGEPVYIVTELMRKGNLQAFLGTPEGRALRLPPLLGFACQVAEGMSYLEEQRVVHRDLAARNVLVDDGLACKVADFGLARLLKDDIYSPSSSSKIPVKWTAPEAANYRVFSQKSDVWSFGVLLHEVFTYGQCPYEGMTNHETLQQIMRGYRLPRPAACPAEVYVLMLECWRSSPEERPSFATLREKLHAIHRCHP

Structure (SMILES)	inhibition at 0.01 µM [1] [%]	inhibition at 0.01 µM [2] [%]	inhibition at 0.01 µM [3] [%]	inhibition at 0.01 µM [4] [%]	inhibition at 0.01 µM [5] [%]	inhibition at 0.001 µM [6] [%]
[2H]c1cc(C)c(NC(=O)c2cnc(Nc3cc(N4CCCCC4)nc(C)n3)s2)c(Cl)c1 [Compound I, N-(2-chloro-4-deuterio-6-methyl-phenyl)-2-[[2-methyl-6-(1-piperidyl)pyrimidin-4-yl]amino]thiazole-5-carboxamide]	< 50	< 50	< 50	< 50	> 50	
[2H]c1cc(C)c(NC(=O)c2cnc(Nc3cc(N4CCC(O)CC4)nc(C)n3)s2)c(Cl)c1 [Compound II, N-(2-chloro-4-deuterio-6-methyl-phenyl)-2-[[6-(4-hydroxy-1-piperidyl)-2-methyl-pyrimidin-4-yl]amino]thiazole-5-carboxamide]						> 50
